This assay concerns the target Serine/threonine-protein phosphatase PP1-alpha catalytic subunit (Homo sapiens) (UniProt P62136). Put plainly: dose-dependent PP1alpha phosphatase inhibition – biochemical, fluorescence, OMFP substrate, set 3, dose response (AID 652220). Particulars: purified PP1alpha, OMFP dephosphorylation.

Chain of Serine/threonine-protein phosphatase PP1-alpha catalytic subunit (Homo sapiens) (P62136 whole entry, looked up): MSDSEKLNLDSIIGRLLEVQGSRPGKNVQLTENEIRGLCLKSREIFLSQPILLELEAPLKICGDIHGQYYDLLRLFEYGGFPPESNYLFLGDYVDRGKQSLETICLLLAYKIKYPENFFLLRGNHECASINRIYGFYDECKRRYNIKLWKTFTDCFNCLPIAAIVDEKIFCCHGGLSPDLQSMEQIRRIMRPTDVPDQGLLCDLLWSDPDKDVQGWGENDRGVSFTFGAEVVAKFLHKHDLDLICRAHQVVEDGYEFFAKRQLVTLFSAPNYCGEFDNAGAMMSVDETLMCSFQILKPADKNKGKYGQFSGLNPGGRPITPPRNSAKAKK

One may read the IC50 as the point on the concentration scale where inhibition reaches its midpoint. Take `CN1CCN([C@@H](c2ncccn2)c2ccc3cccnc3c2O)CC1`: the half-maximal inhibitory concentration (IC50) was 4.81 µM.

In the case of `CN1CCN([C@H](c2ncccn2)c2ccc3cccnc3c2O)CC1`, the IC50 was 5.86 µM.
